The record followed here is US20260049061A1, “SMALL MOLECULES AS KCNQ2/3 (KV7.2/3) CHANNEL ACTIVATORS AND THEIR MEDICAL USE THEREOF” (Humanwell Pharmaceutical US, Inc., priority 2024, published 2026).

In the first experiment the target is T1, KNCQ2/3 (Kv7.2/7.3) (Homo sapiens, UniProt O43525+O43526).
T1 construct: host or cells: HEK293
In words: Kv7.2/7.3 (KNCQ2/3) activation assay, QPatch single concentration screen. The class given is cell-based. The note with it: increase in current over baseline, HEK293 cells with overexpressed Kv7.2/3, compound 1 μM, steady-state current at +40 mV. Here is the method:
The ability of compounds to potentiate K-currents in HEK293 cells with overexpressed KNCQ2/3 (Kv7.2/7.3) was assessed using patch clamp on the QPatch automated screening platform.
Cell Line: The HEK293 cell line with overexpressed Kv7.2/7.3 was obtained from ICE Bioscience Inc. These HEK cells have been engineered to overexpress the Kv7.2/3 ion channels.
Cell Culture: Cells were maintained in the media containing DMEM (Corning, cat. #10-013-CV), 10% FBS (Gibco, cat. #10099141C), 800 μg/mL G418 (GPC, cat. #AK108) and 200 μg/mL hygromycin B (Solarbio, cat. #H8080). The cells were incubated at 37° C. in a humidified incubator under 5% carbon dioxide. Cells were grown in 6 cm dishes to ˜80% confluency. Currents were recorded 24 hours after channel induction.
Compound Plates: Test compounds were prepared by performing serial dilutions in DMSO (Sigma cat #D4540). Final dilutions were made in external recording solution with a final DMSO concentration of 0.1% DMSO. For single concentration screens each plate had 10 μM retigabine (Selleck Chemicals, cat. #S4733) as a positive control.
Electrophysiology: External solution contained 140 mM NaCl (Sigma cat. #S5886), 3.5 mM KCl (Sigma cat. #P5405), 1 mM MgCl2·6H2O (Sigma cat. #M2393), 2 mM CaCl2·2H2O (Sigma cat. #C7902), 10 mM D-Glucose (Sigma cat. #G8270), 10 mM HEPES (Santa Cruz cat. #SC-29097A), 1.25 mM NaH2PO4·2H2O, pH was adjusted to 7.4 with NaOH. Internal solution contained 125 mM K-Aspartic (Sigma cat. #G4500), 20 mM KCl, 10 mM EGTA (Sigma cat. #E3889), 1 mM MgCl2·6H2O, 5 mM Mg-ATP (Sigma cat. #A9187), 5 mM HEPES, pH was adjusted to 7.2 with KOH.
On the day of the experiment cells are washed with the external solution and harvested with 0.25% Trypsin EDTA (Gibco cat. #25200-072). Cells were then centrifuged at 1000 rpm/min for 5 minutes and resuspended in the external solution at ˜2.5×10^6 cells/mL. The cells were stirred with an equilibrium sharker for 20 minutes at room temperature before experiments started.
Potassium channel activity was measured on the QPatch 48X (Sophion Bioscience) using QPlates with 48-wells plate. The KCNQ current was recorded when the voltage was held at −80 mV for 3s, then stepped to −30 mV for 500 ms and back to […]. The process was repeated with an increment of 10 mV between −80 mV and +40 mV. Each cell was taken as an independent experiment and only one compound was tested per well.
Single Concentration Screen: Baseline conditions were obtained by recording 5 sweeps in the external solution only, this was repeated for three applications of the external solution. The effect of test compounds on elicited current was then assessed by recording 5 sweeps in the presence of a 1 μM compound solution. The steady-state current at the end of the 2 s pulse to +40 mV was measured to determine the fold increase from baseline.
`CC(C)(CC(=O)Nc1nn2c(c1-c1ccc(F)cc1)CC(C(F)(F)F)CC2)C(F)(F)F` (stereo not drawn) [Compound 10]: the activity at 1 µM was not below 300%.

Regarding `C=CCN1CCn2nc(NC(=O)CC(C)(C)C)c(-c3ccc(F)cc3)c2C1` [Compound 44], the activity at 1 µM was in the range of 100 to 200%.

On to `O=C(CC1CSC1)Nc1nn2c(c1-c1ccc(F)cc1)CC(C(F)(F)F)CC2` (stereo not drawn) [Compound 37], for which the activity at 1 µM lay in the range of 100 to 200%.

Turning to `CC(C)(C)CC(=O)Nc1nn2c(c1C1=CCCCC1)CC(C(F)(F)F)CC2` (stereo not drawn) [Compound 14], the activity at 1 µM was in the range of 200 to 300%.

With `COC1CCn2nc(NC(=O)CC(C)(C)C)c(-c3ccc(F)cc3)c2C1` (stereo not drawn) [Compound 12], the activity at 1 µM was in the range of 200 to 300%.

`O=C(CCC(F)(F)F)Nc1nn2c(c1-c1ccc(F)cc1)CC(C(F)(F)F)CC2` (stereo not drawn) [Compound 34]: the activity at 1 µM fell in the range of 200 to 300%.

On to `CC(C)(C)CC(=O)Nc1nc2c(n1C(C)(C)C)CCCC2` [Compound 1], for which the activity at 1 µM was in the range of 100 to 200%.

Take `CC(C)(C)CC(=O)Nc1nn2c(c1C1CCC1)CCCC2` [Compound 8]: the activity at 1 µM lay within 200 to 300%.

Regarding `CC1(CC(=O)Nc2nn3c(c2-c2ccc(F)cc2)CC(C(F)(F)F)CC3)CC1` (stereo not drawn) [Compound 35], the activity at 1 µM was not below 300%.

`CC(C)(C)CC(=O)Nc1nn2c(c1-c1ccc(F)cc1)CN(C1CC1)CC2` [Compound 43]: the activity at 1 µM lay in the range of 200 to 300%.

Take `O=C(CC1CC(F)(F)C1)Nc1nn2c(c1-c1ccc(F)cc1)CC(C(F)(F)F)CC2` (stereo not drawn) [Compound 32]: the activity at 1 µM is not below 300%.

For `CC(C)(F)CC(=O)Nc1nn2c(c1-c1ccc(F)cc1)CC(C(F)(F)F)CC2` (stereo not drawn) [Compound 36], the activity at 1 µM is not below 300%.

Consider `CCn1c(NC(=O)CC(C)(C)C(F)(F)F)nc2c1CCCC2` [Compound 64], for which the activity at 1 µM fell in the range of 100 to 200%.

On to `CC(C)(C)CC(=O)Nc1nn2c(c1-c1cccnc1)CC(C(F)(F)F)CC2` (stereo not drawn) [Compound 16], for which the activity at 1 µM fell in the range of 100 to 200%.

For the compound `CC(C)(C)CC(=O)Nc1nn2c(c1-c1ccc(F)cc1)CC1(CC2)CC(F)(F)C1` [Compound 55], the activity at 1 µM was not below 300%.

`CC(C)(C)CC(=O)Nc1nn2c(c1C1CCC1)CC(C(F)(F)F)CC2` (stereo not drawn) [Compound 20]: the activity at 1 µM is not below 300%.

Turning to `CC(C)(C)CC(=O)Nc1nc2n(c1-c1ccc(OC(F)(F)F)cc1)CCCC2` [Compound 54], the activity at 1 µM lay in the range of 200 to 300%.

Consider `CC(C)(C)CC(=O)Nc1nn2c(c1-c1ccc(F)cc1)CN(C(F)(F)F)CC2` [Compound 7], for which the activity at 1 µM fell in the range of 100 to 200%.

For `CC(C)(C)CC(=O)Nc1nn2c(c1C1CCCCC1)CC(C(F)(F)F)CC2` (stereo not drawn) [Compound 15], the activity at 1 µM is not below 300%.

For `CC(C)(CC(=O)Nc1nn2c(c1-c1ccc(F)cc1)CN(C1CC1)CC2)C(F)(F)F` [Compound 47], the activity at 1 µM fell in the range of 100 to 200%.

Consider `CCn1c(NC(=O)CC(C)(C)C)nc2c1CCCC2` [Compound 65], for which the activity at 1 µM lay in the range of 200 to 300%.

For the compound `O=C(CC12CC(C1)C2)Nc1nn2c(c1-c1ccc(F)cc1)CC(C(F)(F)F)CC2` (stereo not drawn) [Compound 33], the activity at 1 µM is not below 300%.

In the case of `CC(C)(C)CC(=O)Nc1nc2c(n1C1CCC1)CCCC2` [Compound 3], the activity at 1 µM was 100 to 200%.

Consider `CC(C)(C)CC(=O)Nc1nc2n(c1C1CCCCC1)CCCC2` [Compound 53], for which the activity at 1 µM lay in the range of 100 to 200%.

With `CC(C)(C)CC(=O)Nc1nc2ncccc2n1-c1ccc(F)cc1` [Compound 60], the activity at 1 µM was 100 to 200%.

In a further experiment the test system is PTZ-induced epileptic model using ICR mice. In words: PTZ-induced epilepsy model in ICR mice. Format: in vivo. The conditions noted are these: male ICR mice, 10 mg/kg oral 30 min before PTZ 100 mg/kg i.p., recorded for 30 min. Here is the method:
SPF-grade male ICR mice (22-24 g) were purchased from Human Silaike Jingda Laboratory Animal Co. Ltd., China and sent to the housing facility after veterinary inspection to adapt to the rearing environment. The mice were housed in cages for 3 days under suitable conditions (temperature at 22±1° C., humidity at 40-70%, sufficient water and food, 12 hours of daylight). On the formal test day, all mice were weighed, and those meeting the weight criteria were numbered at the base of their tails. […] Animals were orally administered compound 34 (10 mg/kg) 30 min before the i.p. injection of PTZ (100 mg/kg, Sigma, USA) for epilepsy modeling. The seizure response of the mice was evaluated based on the epilepsy grading criteria. The latency and incidence rate of each seizure grade were recorded for 30 min. After the experiment, the test animals were euthanized using carbon dioxide. The results are shown in Table 2 and FIG. 1 respectively.
On to `O=C(CCC(F)(F)F)Nc1nn2c(c1-c1ccc(F)cc1)CC(C(F)(F)F)CC2` (stereo not drawn) [Compound 34], for which the “Latency to Racine IV Seizure” value came out at 1393 s and the “Latency to Racine VI Seizure” value stood at 1658 s.

Regarding `CC(C)CS(=O)(=O)Nc1nn2ccc(Cl)cc2c1-c1ccc(F)cc1` [Compound 62], the “Latency to Racine IV Seizure” value worked out at 636 s and the “Latency to Racine VI Seizure” value was 1409 s.

As to `CC(C)(CC(=O)Nc1nn2c(c1-c1ccc(F)cc1)CCCC2)C(F)(F)F` [Compound 38], the “Latency to Racine IV Seizure” value was found to be 784 s and the “Latency to Racine VI Seizure” value was found to be 1320 s.

A further experiment concerns formalin model using SD rats. In words: 2% formalin rat model (paw licking). Format: in vivo. The note with it: male SD rats, 10 mg/kg oral 15 min before intraplantar 2.0% formalin, paw licking monitored for 60 min. As for the experimental part:
SPF male SD rats (170-190 g) were purchased from Human Silaike Jingda Laboratory Animal Co. Ltd., China. The rats were housed in cages for 3 days under suitable conditions (temperature at 22±1° C., humidity at 40-70%, sufficient water and food, 12 hours of daylight). The rats with a body weight of 220-240 g were numbered for further experiments. The rats were placed in the ZH-PAN801 automated rodent behavioral tracking system (Anhui Zhenghua Biologic Apparatus Facilities) for 60 min per day for an additional 3 days.
Paw licking behavior, a correlation of spontaneous pain, was tracked using the ZH-PAN801 automated rodent behavioral tracking system that can differentiate behaviors and locomotor activity of individually housed rats. The ZH-PAN801 system consists of sensor platforms which rest on two orthogonally placed force transducers and a third fixed point attached to a base plate. Each force transducer transforms the mechanical vibrations caused by animal movement into electrical signals, which are amplified, filtered, and digitized by the ZH-PAN801 system. Characteristic movements have their own unique vibrational patterns which the ZH-PAN801 software can distinguish. The cylinder cages (75 mm (radius)×310 mm (height)) consist of two halves to sensitize detection of vibrations. Thus, the base is separate from the sides, the lid, and sits directly on the sensor platform, while the sides and the lid hang from supports on the base plate.
Rats were equipped with the force transducer 15 min before the dosing. Animals were orally administered compound 21 (10 mg/kg) 15 min before the formalin injection. Rats were administered an intraplantar injection of formalin (50 μL, 2.0%, Sigma, USA) into the dorsal surface of the hindpaw attached with the force transducer to induce acute pain and placed in the automated rodent behavioral tracking system. Paw licking behavior was monitored for 60 min using the ZH-PAN801 behavior tracking system. The duration of paw licking behavior (in minutes) was collected from two distinctive phases, the early nociceptive phase occurring 0-10 min after formalin injection and the late phase thought to be associated with central sensitization, which peaks 11-60 min after formalin injection. Treatment effects were compared to vehicles by an unpaired t-test and one-way ANOVA using Graph Pad 9.0. The results are shown in Table 3 and FIG. 2 respectively.
Take `CC(C)(C)n1c(NC(=O)CC(C)(C)C(F)(F)F)nc2cc3c(cc21)CNC3` [Compound 58]: the “% MPE (10 mpk)” value worked out at 89%.

On to `O=C(CCC(F)(F)F)Nc1nn2c(c1-c1ccc(F)cc1)CC(C(F)(F)F)CC2` (stereo not drawn) [Compound 34], for which the “% MPE (10 mpk)” value was 65%.

`CC(C)CS(=O)(=O)Nc1nn2ccc(Cl)cc2c1-c1ccc(F)cc1` [Compound 62]: the “% MPE (10 mpk)” value came out at 89%.

Turning to `CC(C)(CC(=O)Nc1nn2c(c1-c1ccc(F)cc1)CCCC2)C(F)(F)F` [Compound 38], the “% MPE (10 mpk)” value turned out to be 87%.

In the case of `CC(C)(CC(=O)Nc1nn2c(c1-c1ccc(F)cc1)C[C@@H](C(F)(F)F)CC2)C(F)(F)F` [Compound 24], the “% MPE (10 mpk)” value came out at 97%.
